d = 2'-deoxy (DNA); r = 2'-OH (RNA)
Experiments:
Format in all cases: in vivo
[1] = tested on: glyphosate-resistant Palmer amaranth containing 16 copies of EPSPS; test: Glyphosate counter-ions with EPSPS polynucleotides (Example 35, Table 29); details: for Palmer control (%) / Palmer height (cm): 1682 g acid equivalent per hectare of the glyphosate salt, with or without EPSPS polynucleotides (IDT [1]-[4]) in 0.5% Silwet L-77, 2% ammonium sulfate, 16 copies of EPSPS, 21 days after treatment; for herbicidal activity compared to the potassium salt: 1682 g acid equivalent per hectare of glyphosate salt with IDT [1]-[4], 21 days after glyphosate treatment
Text: FIG. 38 depicts the effect of varying glyphosate counter-ions on herbicidal activity (presented as percent of weed control/kill, and as plant height) of topically applied polynucleotides (RNA) on glyphosate-resistant Palmer amaranth plants. A mixture of EPSPS polynucleotides (IDT [1] (SEQ ID NO:83-84), IDT [2] (SEQ ID NO:85-86), IDT [3] (SEQ ID NO:87-88), and IDT [4] (SEQ ID NO:89-90)) in 0.5% Silwet L-77, 2% ammonium sulfate in 10 millimolar sodium phosphate buffer, pH 6.8 with 0.2% Roundup® WeatherMax® carrier (MON56151 tallowamine surfactant blend of tallowamine (16-18C) and cocoamine (12-14C) in the ratio of 55:45) and 1682 g acid equivalent per hectare of one of the glyphosate salts; K+ glyphosate, isopropylammonium+ glyphosate or monoethanolammonium+ glyphosate at 215 liters/acre by Milli spray on 3 replicates of 4-6 inch glyphosate-resistant Palmer amaranth containing 16 copies of EPSPS. Plant height was scored at 21 days after glyphos ate treatment.

[2] = tested on: Glyphosate-sensitive Palmer amaranth (Amaranthus palmeri) plants; test: HPPD, PPO, TIF anti-sense ssDNA with mesotrione, fomesafen, atrazine, plant height (Example 28, Tables 18 and 19); details: for Plant height (mm): four days after herbicide treatment
Experimental: The herbicidal activity of ssDNA polynucleotides that target the enzymes […] and protoporphyrinogen oxidase (PPO), and a transcription initiation factor (TIF), and their effect on the herbicide activity when used in combination with the herbicides mesotrione, fomesafen, and atrazine in Palmer amaranth was investigated.
Glyphosate-sensitive Palmer amaranth (Amaranthus palmeri) plants were grown in 4-inch square pots with Sun Gro® Redi-Earth seedling mix containing 3.5 kg/cubic meter Osmocote® 14-14-14 fertilizer in a greenhouse with 14 h photoperiod and a daytime temperature of 30 degrees Celsius and night temperature of 20 degrees Celsius. The plants were sub-irrigated as necessary.
Plants at 10 to 15 cm height were pre-treated manually with 40 microliters (4 fully expanded mature leaves were treated with 10 microliters of solution per leaf on each plant) of a buffer-surfactant solution (as a control; 0.5% Silwet L-77 and 2% ammonium sulfate), or a buffer-surfactant-ssDNA polynucleotide mixture of the anti-sense oligonucleotides targetting HPPD, PPO, or TIF. Some plants were left untreated and were used as controls. […] Crop oil concentrate (COC) at 1% was added to all herbicide treatments. A low rate of each herbicide ([…], equivalent to ⅛ of the recommended field rate; […], equivalent to 1/22 of the recommended field rate; […], equivalent to ⅛ of the recommended field rate,) was used to be able to detect any improvement of herbicide activity by the oligonucleotide mixture.
Plant height was determined at four days after herbicide treatment. Data were collected from one experiment with four replications per treatment.

[3] = tested on: Palmer amaranth; test: Combinations of EPSPS, TIF and ddATPase polynucleotides then glyphosate (Example 26, Tables 12 and 13)
Experimental: Solutions of the polynucleotides were prepared and applied to the leaves of Palmer amaranth using the protocols described in Table 12.

[4] = tested on: Palmer amaranth phytoene desaturase (PDS); test: Sequence specificity of PDS dsRNA on Palmer amaranth, bleaching (Example 11); details: for bleaching of leaves: 0.6 micromolar polynucleotide, 40 microliters per plant, observed 3 days post treatment; for bleaching of leaves (FIG. 17): separate assay
Experimental: Palmer amaranth plants having 16 copies of EPSPS and 5-8 inches high were treated with 0.1% Silwet L-77 solution freshly made with ddH2O. Four fully expanded leaves per plant were dipped into the Silwet L-77 solution for a few seconds, and allowed to dry for 30 minutes to 1 hour before application of the polynucleotide composition. Individual polynucleotide solutions were made for each of the 678 by Palmer PDS dsRNA, 198 by Palmer PDS dsRNA, the 685 by Nicotiana benthamiana PDS dsRNA, and the 192 by Nicotiana benthamiana PDS dsRNA (0.6 micromolar polynucleotide in 0.01% Silwet L-77, 5 mM sodium phosphate buffer, pH 6.8). 10 microliters of polynucleotide solution (or buffer as a control) was applied to the top surface of each of the four pre-treated leaves per plant to provide a total of 40 microliters for each plant. Plants were kept in a growth chamber, and leaf bleaching was observed 3 days post treatment.

[5] = pre-treatment: Untreated, herbicide only (mesotrione 13, fomesafen 23, atrazine 170 grams per hectare of active ingredient, 1% COC)
[6] = pre-treatment: Buffer (0.5% Silwet L-77 and 2% ammonium sulfate), herbicide 24 h later (mesotrione 13, fomesafen 23 grams per hectare, 1% COC)
[7] = protocol 3, 29 g/acre, copy number 16, 13 DAT

Q: Which results are given for `CC(C)N.O=C(O)CNCP(=O)(O)O` [IPA + glyphosate]?
A: Palmer control (%) [1]: 9%; Palmer height (cm) [1]: 14.5 cm

Q: For `O=C(O)CNCP(=O)([O-])O.[K+]` [K + glyphosate], which “Palmer control (%)” value [1] is on record?
A: 23%

Q: What about the “Palmer height (cm)” value [1] of the same molecule?
A: 12.3 cm

Q: Which results are given for `NCCO.O=C(O)CNCP(=O)(O)O` [MEA + glyphosate]?
A: Palmer control (%) [1]: 9%; Palmer height (cm) [1]: 14.5 cm

Q: With `CCNc1nc(Cl)nc(NC(C)C)n1` [atrazine] as the molecule, how does the “Plant height (mm)” value [2, 5] read?
A: 146 mm

Q: Which “Plant height (mm)” value [2, 6] does the source give for `CS(=O)(=O)NC(=O)c1cc(Oc2ccc(C(F)(F)F)cc2Cl)ccc1[N+](=O)[O-]` [fomesafen] here?
A: 139 mm

Q: And the “Plant height (mm)” value [2, 5]?
A: 158 mm

Q: How did the “herbicidal activity compared to the potassium salt” value [1] turn out when `CC(C)N.O=C(O)CNCP(=O)(O)O` [isopropylammonium+ glyphosate, reference compound] was run?
A: better herbicidal activity

Q: Which results are given for `CS(=O)(=O)c1ccc(C(=O)C2C(=O)CCCC2=O)c([N+](=O)[O-])c1` [mesotrione]?
A: Plant height (mm) [2, 6]: 179 mm; Plant height (mm) [2, 5]: 180 mm

Q: Which “herbicidal activity compared to the potassium salt” value [1] does the source give for `NCCO.O=C(O)CNCP(=O)(O)O` [monoethanolammonium+ glyphosate, reference compound] here?
A: better herbicidal activity

Q: “IDT [1]: Palmer/EPSPS dsRNA, SEQ ID NO. 83, 84 (chain 1 CUACCAUCAACAAUGGUGUCCAUAC; chain 2 GUAUGGACACCAUUGUUGAUGGUAGUA; chain 1: sugars from the 5' end r23 d2, backbone not given here; chain 2: RNA, backbone not given here)” was tested. Which “Results: % stunted” value [3, 7] did it give?
A: 51% stunted

Q: How did the “Results: % control” value [3, 7] turn out when “IDT [2]: Palmer/EPSPS dsRNA, SEQ ID NO. 85, 86 (chain 1 AGUUGGUGGGCAAUCAUCAAUUG; chain 2 AACAAUUGAUGAUUGCCCACCAACUCU; chain 1: RNA, 3' dTdT, backbone not given here; chain 2: RNA, backbone not given here)” was run?
A: 0% control

Q: Which “Results: % stunted” value [3, 7] does the source give for “IDT [3]: Palmer/EPSPS dsRNA, SEQ ID NO. 87, 88 (chain 1 GGUCGACAACUUGCUGUAUAGUGA; chain 2 AUCACUAUACAGCAAGUUGUCGACCUC; chain 1: sugars from the 5' end r23 d1, 3' dT, backbone not given here; chain 2: RNA, backbone not given here)” here?
A: 51% stunted

Q: How did the “Results: % stunted” value [3, 7] turn out when “IDT [4]: Palmer/EPSPS dsRNA, SEQ ID NO. 89, 90 (chain 1 UGCAAGGUCACCUGGACAGAGAAA; chain 2 UAUUCUCUGUCCAGGUGACCUUGCAAC; listed as RNA, chemistry not fully specified)” was run?
A: 51% stunted

Q: “IDT [5]: Palmer/EPSPS dsRNA (21-mer) with blunt ends, SEQ ID NO. 91, 92 (chain 1 AACAUGAACAAAAUGCCAGAU; chain 2 AUCUGGCAUUUUGUUCAUGUU; RNA, backbone not given here)” was tested. Which “Results: % stunted” value ([3]; protocol 1, 0.29 g/acre, copy number 33, 54, 55, 18 DAT) did it give?
A: 71%

Q: What about the “Results: % stunted” value ([3]; protocol 1, 0.29 g/acre, copy number 34, 36, 54, 22 DAT) of the same molecule?
A: 14.1%

Q: What about the “Results: % killed” value ([3]; protocol 1, 2.9 g/acre each, copy number 34, 36, 54, 22 DAT) of the same molecule?
A: 100% kill

Q: And the “Results: % killed” value ([3]; protocol 1, 2.9 g/acre, copy number 33, 54, 55, 18 DAT)?
A: 100% killed

B1: 678 by Palmer PDS dsRNA: dsRNA to positions 317-994 of SEQ ID NO:37 (nucleic acid, listed as Amaranthus palmeri)
sense: TAGGAGGAAAGGTTGCAGCGTGGAAGGATGAGGATGGTGACTGGTATGAGACTGGGCTACATATATTCTTTGGGGCATATCCAAATGTCCAAAATCTATTTGGAGAACTTGGTATAAATGACCGACTGCAATGGAAGGAGCACTCTATGATTTTTGCAATGCCCAGCAAGCCCGGTGAATTCAGTCGCTTTGATTTTCCCGAAATCCTGCCTGCACCATTAAATGGCATATGGGCAATCCTAAGAAATAATGAAATGCTAACCTGGCCAGAAAAAATCAAGTTTGCCATTGGCTTGTTGCCTGCTATGGCAGGCGGACAGTCATATGTTGAAGCACAAGATGGTTTGAGTGTCCAAGAGTGGATGAGAAAACAAGGAGTACCCGATCGTGTAACTGATGATGTGTTTATTGCCATGTCAAAGGCACTGAACTTCATAAATCCCGATGAACTTTCAATGCAGTGCATCTTGATTGCTCTGAACCGATTCCTGCAGGAGAAACATGGTTCTAAGATGGCCTTCCTAGACGGAAACCCTCCAGAGAGGCTGTGCATGCCTATTGTTAAACACATCGAGTCACTAGGTGGTGAAGTTAAACTTAACTCTCGTATACAAAAGATTCAGTTGGACCAGAGTGGAAGCGTGAAGAGTTTTTTGCTAAATAACGGGAGGGAAATAC
modifications: complementary strand
Q: Which results are given for B1?
A: bleaching of leaves [4]: showed bleaching of leaves; bleaching of leaves (FIG. 17) [4]: showed bleaching of leaves

B2: HPPD anti-sense ssDNA oligonucleotides: 8 HPPD anti-sense ssDNA oligonucleotides (SEQ ID NOS:141-148) (nucleic acid)
antisense 1: TCCGTAGCTTACATACCGAAG
antisense 2: TCCAAGTGAATAGGAGAAACA
antisense 3: AGCAGCTTCTGCGTCTTCTAC
antisense 4: ACAGCACGCACGCCAAGACCG
antisense 5: CGATGTAAGGAATTTGGTAAA
antisense 6: CGAGGGGATTGCAGCAGAAGA
antisense 7: GTAGGAGAATACGGTGAAGTA
antisense 8: GACCCCAAGAAAATCGTCTGC
modifications: DNA, backbone not given here
Q: What does the source list for B2?
A: growth reduction relative to the buffer-surfactant control ([2]; ssDNA pre-treatment without herbicide): 32%; Palmer amaranth plant height ([2]; ssDNA pre-treatment without herbicide, 40 microliters per plant in 0.5% Silwet L-77 and 2% ammonium sulfate, buffer-surfactant control 185 mm): 125 mm

B3: 198 by Palmer PDS dsRNA: dsRNA to positions 797-994 of SEQ ID NO:37 (nucleic acid, listed as Amaranthus palmeri)
sense: ACCGATTCCTGCAGGAGAAACATGGTTCTAAGATGGCCTTCCTAGACGGAAACCCTCCAGAGAGGCTGTGCATGCCTATTGTTAAACACATCGAGTCACTAGGTGGTGAAGTTAAACTTAACTCTCGTATACAAAAGATTCAGTTGGACCAGAGTGGAAGCGTGAAGAGTTTTTTGCTAAATAACGGGAGGGAAATAC
modifications: complementary strand
Q: Which bleaching of leaves [4] does the source give for B3 here?
A: showed bleaching of leaves

Q: What about the “bleaching of leaves (FIG. 17)” value [4] of the same molecule?
A: showed bleaching of leaves
